Measured values from patent US11207386B2, “Methods for inhibiting tumor growth” (priority 2015, dated 2021).
“And” between values parts separate entries of the source, which are not always exact repeats. Identical values can stand only once.

Tested on: MCF-7 human breast cancer cells
Experiment: CellTiter Glo assay
Conditions: six wells and Average
Procedure: MCF-7 human breast cancer cells were obtained and cultured for 3 passages in recommended media (DMEM medium, F12-K medium, McCoys 5a medium) and 10% fetal bovine serum (FBS). Cells were harvested by trypsinization, counted on ViCell, then plated at a density of 20,000 cells per well in ten clear bottom Perkin Elmer 96 well view plates and ten clear Costar 96 well plates. Oxyrase® and substrate were added to wells in quadruplicate: a first column of 4 wells had cells alone in each well; a second column of 4 wells contained Oxyrase® (20 units/mL) and cells; a third column of 4 wells contained L-Lactate at 40 mM and cells; and a fourth column of 4 wells contained cells and buffer, the latter added at equal volume to Oxyrase®. Five Perkin Elmer 96 well view plates and five clear Costar 96 well plates were placed in an incubator at 37 degrees Celsius and supplied with 5% carbon dioxide and 10% humidity. The remaining plates were placed in an incubator in anaerobic boxes containing oxygen depleting packets.
On days 0, 1, 3, 5, and 7, one Perkin Elmer 96 well view plate each from aerobic and anaerobic incubators were removed and a CellTiter Glo® assay was performed. CellTiter Glo® reagents were thawed at room temperature and mixed just before being added to each plate. Equal volume (maximum 125 μL) of CellTiter Glo® reagent was added to the plate and the plate incubated in the dark for 15 minutes. Plates were read using a Wallac Victor2 plate reader using the luminescence range

L-Lactate [Substrate + Buffer]
CellTiter Glo luminescence (number of cells) (MCF-7, Day 0, Substrate + Buffer): 376738 RLU and 379461 RLU and 340018 RLU and 370831 RLU and 395464 RLU and 380015 RLU
CellTiter Glo luminescence (number of cells) (MCF-7, Day 1, Substrate + Buffer): 136132 RLU and 135475 RLU and 224766 RLU and 187489 RLU and 171303 RLU and 142850 RLU
CellTiter Glo luminescence (number of cells) (MCF-7, Day 5, Substrate + Buffer): 180844 RLU and 214489 RLU and 155311 RLU and 175921 RLU and 183640 RLU and 185254 RLU
CellTiter Glo luminescence (number of cells) (MCF-7, Day 7, Substrate + Buffer): 147731 RLU and 163281 RLU and 149128 RLU and 150112 RLU and 139841 RLU and 176875 RLU
